Data set [1] can be described thus: Absorption and fluorescence spectra and pH profiles in sodium phosphate buffer. Type of data set: physicochemical. Particulars: for pH-dependent change of absorbance / λabs / λfl: 0.1 M sodium phosphate buffer containing 1% DMSO; for pH-dependent change of absorbance: pH profile; for λabs / λfl: Table 1. The method, then: (§1) Fluorescence was measured with an excitation wavelength of 593 nm.
Fluorescence was measured with an excitation wavelength of 505 nm.
Fluorescence was measured with an excitation wavelength of 590 nm.
Absorption and fluorescence spectra as well as pH profiles of 2-Me SiR600 and the acetylated compound thereof (N-Ac-2-Me SiR600) synthesized in Example 2 were measured. […] Therefore, 2-Me SiR600 in which the amino group at the 3-position is acylated can be functioned as a fluorescent probe for detecting enzymatic activity on the basis of absorption wavelength change with a high S/N ratio, without using the intramolecular photoinduced electron transfer.
In a similar manner, absorption and fluorescence spectra as well as pH profiles of 2-COOH SiR600 and the acetylated compound thereof were measured. […] Therefore, it can be used as a fluorescent probe as shown in the following scheme.
Absorption spectrum of Z-DEVD-SiR600 was measured in a 0.1 M sodium phosphate buffer of pH 3 to 10 containing 1% DMSO. The measurement results are shown in FIG. 5, and the photochemical characteristics are shown in Table 3 mentioned below together with the results for SiR600.

For a further data set, the system named is caspase-3. The experiment in a line: Reaction of fluorescent probe with caspase-3 (absorption/fluorescence before and after). Type of data set: biochemical. Particulars: for absorption maximum wavelength: 20 mM HEPES buffer pH 7.4, 37° C., before/after reaction with caspase-3. The method, then:
as §1
Function of Z-DEVD-SiR600 as a fluorescent probe was evaluated by reacting it with caspase-3. Caspase-3 (0.5 μg) was added to Z-DEVD-SiR600 (2 μM), and the mixture was reacted for 10 hours. The reaction was performed at 37° C. in a 20 mM HEPES buffer (pH 7.4, 0.75 ml) containing 100 μM dithiothreitol (DTT), 10% glycerol, 0.1% CHAPS, 100 mM NaCl, and 0.1% DMSO. The absorption spectra and fluorescence spectra observed before and after the reaction (excitation wavelengths are shown in FIG. 6, (b) and (c), respectively, and the kinetics parameters of the reaction are shown in FIG. 6, (d)).

The next data set relates to leucine aminopeptidase. The experiment in a line: Reaction of fluorescent probe with leucine aminopeptidase (absorption/fluorescence before and after). In kind it is biochemical. Particulars: for absorption maximum wavelength: 0.1 M sodium phosphate buffer pH 7.4, 37° C., before/after reaction with leucine aminopeptidase. How it is done:
as §1
Function of Leu-SiR600 as a fluorescent probe was evaluated by reacting it with leucine aminopeptidase. Leucine aminopeptidase (0.096 unit) was added to Leu-SiR600 (6 μM), and the mixture was reacted for 2.5 hours. The reaction performed at 37° C. in a 0.1 M sodium phosphate buffer (pH 7.4, 0.75 ml) containing 0.8% DMSO. The absorption spectra and fluorescence spectra observed before and after the reaction are shown in FIG. 7, (b) and (c), respectively.

Here are results for 6 compounds from patent US9329184B2, “Fluorescent probe” (THE UNIVERSITY OF TOKYO, priority 2011, dated 2016).

For `C[Si]1(C)c2cc(N)ccc2C2(OC(=O)c3ccccc32)c2ccc(N)cc21` [2-COOH SiR600], the “pH-dependent change of absorbance” value in data set [1] was “did not substantially show absorbance change at pH higher than the physiological pH region”. In data set [1] (Table 2, pH 7.4), this compound had a ΦFL of 0.26, a ε of 4000 M⁻¹ cm⁻¹, a λem of 610 nm and a λex of 590 nm.

As to `Cc1ccccc1C1=C2C=CC(=N)C=C2[Si](C)(C)c2cc(N)ccc21` [2-Me SiR600], in data set [1], the “pH-dependent change of absorbance” value is listed as “did not substantially show pH-dependent change of absorbance”, the λabs was 593 nm and the λfl is listed as 613 nm. Further, in data set [1] (Example 4), the maximum absorption wavelength worked out at 593 nm. Besides, in data set [1] (Table 3, pH 7.4), the ΦFL was found to be 0.38, the ε turned out to be 91000 M⁻¹ cm⁻¹, the λem was 613 nm and the λex came out at 593 nm. In the data set on caspase-3, this compound returned an absorption maximum wavelength of 593 nm. Also, the absorption maximum wavelength in the data set with leucine aminopeptidase is 593 nm.

Consider `Cc1ccccc1C1=C2C=CC(=N)C=C2[Si](C)(C)c2cc(NC(=O)[C@H](N)CC(C)C)ccc21` [Leu-SiR600], for which the absorption maximum wavelength entry in the data set with leucine aminopeptidase is recorded as “around 500 nm”. The “fluorescence before and after the reaction with leucine aminopeptidase” value in the data set with leucine aminopeptidase (probe 6 μM, leucine aminopeptidase 0.096 unit, 2.5 hours, 37° C., excitation light 593 nm) is given as “scarcely observed before the reaction, but extremely strong fluorescence is observed after the reaction”.

On to `CC(=O)Nc1ccc2c(c1)[Si](C)(C)C1=CC(=N)C=CC1=C2c1ccccc1C` [N-Ac-2-Me SiR600, N-Acetyl-2-Me SiR600], for which, in data set [1], the “pH-dependent change of absorbance” value is “decreased with decrease of pH”, the λabs was 505 nm and the λfl is recorded as 600 nm. Moreover, in data set [1] (acetylation of the amino group at the 3-position), the “shift of maximum absorption wavelength compared with 2-Me SiR600” value is recorded as “significantly shifted to the shorter wavelength side”.

Regarding `CC(=O)Nc1ccc2c(c1)[Si](C)(C)c1cc(N)ccc1C21OC(=O)c2ccccc21` (stereo not drawn) [N-Acetyl-2-COOH SiR600], the “absorption for the visible region” value in data set [1] (physiological pH range) is on record as “not to show absorption for the visible region in the physiological pH range”.

As for Z-DEVD-SiR600, the “pH-dependent change of absorbance” value in data set [1] is given as “showed pH-dependent absorbance change”. In data set [1] (Table 3, pH 3.0), the ΦFL came out at 0.19, the ε came to 85000 M⁻¹ cm⁻¹, the λem is 600 nm and the λex is recorded as 500 nm. Besides, the “absorption of light around 593 nm” value in data set [1] (around the maximum absorption wavelength of SiR600) is “did not absorb light around the maximum absorption wavelength (593 nm) of SiR600”. In addition, the absorption maximum wavelength entry in the data set on caspase-3 was “around 500 nm”. In the data set with caspase-3 (probe 2 μM, caspase-3 0.5 μg, 10 hours, 37° C., excitation light 593 nm), the “fluorescence before and after the reaction with caspase-3” value is reported as “scarcely observed before the reaction, but extremely strong fluorescence is observed after the reaction”.
